Source: article PMC8580996, “2-Oxoglutarate derivatives can selectively enhance or inhibit the activity of human oxygenases” (Nature Communications, 2021)
Several values for one entry are separate records, joined by “and”; a condition that tells them apart may be missing. Equal values may be shown once. Entries after “also recorded” stand apart in the source; their conditions may differ.

Key:
[1] = target: T1, FIH (Homo sapiens, UniProt Q9NWT6); test: 1H NMR assay of FIH-catalyzed oxidative decarboxylation of cosubstrate, with SPE-MS of final mixture; type: biochemical; conditions: 5 μM FIH, 150 μM CA1-20, 150 μM cosubstrate
Description: Supplementary Figure 2. […] FIH- […]
catalyzed oxidative decarboxylation of 2OG was monitored using a Bruker AVIII 700 NMR machine equipped with a 5 mm 1H(13C/15N) inverse cryoprobe; spectra were analyzed using the Bruker TopSpin 3.6.1 software.
50 μM ammonium iron(II) sulfate hexahydrate (FAS, (NH4)2Fe(SO4)2·6H2O) in 50 mM aqueous Tris-d11 containing 10% v/v D2O (pH 7.5, 25° C). The ratio of the CA 1-20 peptide and the hydroxylated CA 1-20(Ox) peptide, which is the product of the F IH-catalyzed hydroxylation reaction, was determined using SPE-MS after NMR […]
(a) Close-up (3.0-2.2 ppm) of the 1H NMR spectrum of commercial 2OG in 50 mM aqueous Tris-d11 containing 10%v/v D2O (pH 7.5, 25° C); (b) Close-up (3.0-2.2 ppm) of the 1H NMR spectrum of commercial succinate in 50 […]
FIH-catalyzed oxidative decarboxylation of 3-methyl-2OG (1) was monitored using a Bruker AVIII 700 NMR machine equipped with a 5 mm 1H(13C/15N) inverse cryoprobe; spectra were analyzed using the […]
Bruker TopSpin 3.6.1 software. […]
in 50 mM aqueous Tris -d11 containing 10% v/v D2O (pH 7.5, 25° C). The ratio of the CA 1-20 peptide and the hydroxylated CA 1-20(Ox) peptide, which is the product of the FIH -catalyzed hydroxylation reaction, was […]
(a) Close -up (3.4 -0.9 ppm) of the 1H NMR spectrum of synthetic 1 in 50 mM aqueous Tris-d11 containing 10% v/v D2O (pH 7.5, 2 5° C); ( b) Close -up (3.4 -0.9 ppm) of the 1H NMR spectrum of commercial 2 -methylsuccinate ( 36) […]
FIH-catalyzed oxidative decarboxylation of 4-methyl-2OG (12) was monitored using a Bruker AVIII 700 NMR machine equipped with a 5 mm 1H(13C/15N) inverse cryoprobe; spectra were analyzed using the Bruker TopSpin 3.6.1 software.
(NH4)2Fe(SO4)2·6H2O) in 50 mM aqueous Tris-d11 containing 10% v/v D2O (pH 7.5, 25° C). The ratio of the CA 1-20 peptide and the hydroxylated CA 1-20(Ox) peptide, which is the product of the FI H-catalyzed hydroxylation […]
(a) Close -up (3.3 -0.9 ppm) of the 1H NMR spectrum of synthetic 12 in 50 mM aqueous Tris-d11 containing 10% v/v D2O (pH 7.5, 25° C); ( b) Close -up (3.4 -0.9 ppm) of the 1H NMR spectrum of commercial 2 -methylsuccinate ( 36)

[2] = target: T2, AspH (Homo sapiens, UniProt Q12797); conditions: 0.05 μM AspH, 1.0 μM hFX-CP101-119, 3.0 μM 2OG, ref 21 (supplementary ref 1); cited from earlier work
T2 construct: the tetratricopeptide repeat domain (His6-AspH315-758), was produced and purified as previously reported; made in house
T2 sequence (Q12797 315-758): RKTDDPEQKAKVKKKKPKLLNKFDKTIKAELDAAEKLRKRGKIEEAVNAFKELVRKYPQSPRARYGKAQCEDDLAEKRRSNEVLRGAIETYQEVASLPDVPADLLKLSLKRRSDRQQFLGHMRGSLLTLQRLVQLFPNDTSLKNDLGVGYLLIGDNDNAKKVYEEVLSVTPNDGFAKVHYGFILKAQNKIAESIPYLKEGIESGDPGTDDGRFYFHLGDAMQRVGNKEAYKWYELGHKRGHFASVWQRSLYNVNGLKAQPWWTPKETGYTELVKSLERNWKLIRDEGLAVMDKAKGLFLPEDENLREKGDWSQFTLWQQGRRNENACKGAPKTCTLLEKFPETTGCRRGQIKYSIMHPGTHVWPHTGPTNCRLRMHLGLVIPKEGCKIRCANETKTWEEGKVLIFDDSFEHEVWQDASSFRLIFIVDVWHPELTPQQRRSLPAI

[3] = target: T1, FIH; test: Competition assay in a single reaction vessel, FIH-catalyzed hydroxylation (SPE-MS); type: biochemical
Description: Mean of three independent runs (n = 3; mean ± SD). […] Cosubstrates: a 20 μM 2OG; b 20 μM 2OG; c 20 μM 1; d 20 μM 12; e 20 μM 12 and 100 μM 2OG; f 100 μM 14. Source data are provided as a Source Data file.
Mean of three independent runs (n = 3; mean ± SD). […] Source data are provided as a Source Data file.
Peptide turnover was monitored by SPE-MS using the same instrument configuration (with the exception that the peptides were eluted from the SPE cartridge with 0.1%v/v aqueous formic acid in 80/20 v/v acetonitrile/water) as described above.
FIH and AspH-catalyzed peptide hydroxylations were analyzed simultaneously using SPE-MS as described in the
Methods section; competition experiments were performed in the same reaction vessel using equimolar 2OG
oxygenase and substrate concentrations. […]
Source data are provided as a Source Data file.
FIH and AspH-catalyzed peptide hydroxylations were analyzed simultaneously using SPE-
MS as described in the Methods section; competition experiments were performed in the same reaction vessel
using equimolar 2OG oxygenase and substrate concentrations. […]
2OG, 100 μM 14. Source data are provided as a Source Data file.

T1 sequence (Q9NWT6 whole entry): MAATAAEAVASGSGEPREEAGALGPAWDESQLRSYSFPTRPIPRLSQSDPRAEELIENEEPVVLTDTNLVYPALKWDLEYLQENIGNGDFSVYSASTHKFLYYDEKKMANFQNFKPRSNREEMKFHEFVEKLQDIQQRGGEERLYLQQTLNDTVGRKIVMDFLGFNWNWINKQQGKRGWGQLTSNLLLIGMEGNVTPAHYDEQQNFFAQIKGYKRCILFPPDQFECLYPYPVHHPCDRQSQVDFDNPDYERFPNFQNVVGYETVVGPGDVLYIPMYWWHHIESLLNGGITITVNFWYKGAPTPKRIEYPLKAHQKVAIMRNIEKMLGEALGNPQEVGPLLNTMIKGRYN

- hydroxylation of CA1-20 peptide in final reaction mixture (SPE-MS) ([1]; t = 10 min): > 95%
- FIH-catalyzed conversion of cosubstrate to succinate / 2-methylsuccinate (1H NMR) ([1]; within 5 min): ~ 65%
- FIH-catalyzed CA1–20 conversion ([3]; Fig 2e, 20 μM 12 and 100 μM 2OG): ~ 90%
- substrate hydroxylation (% conversion) ([3]; Fig 2e, 20 μM 12 and 100 μM 2OG, FIH, 0 min): 15.3987 and 14.8576 and 13.209
- substrate hydroxylation (% conversion) ([3]; Fig 2e, 20 μM 12 and 100 μM 2OG, FIH, 0.237833 min): 27.0539 and 26.3778 and 23.9445
- substrate hydroxylation (% conversion) ([3]; Fig 2e, 20 μM 12 and 100 μM 2OG, FIH, 0.478833 min): 35.9286 and 35.8922 and 32.7293
- substrate hydroxylation (% conversion) ([3]; Fig 2e, 20 μM 12 and 100 μM 2OG, FIH, 0.717 min): 45.1159 and 43.9873 and 41.1347
- substrate hydroxylation (% conversion) ([3]; Fig 2e, 20 μM 12 and 100 μM 2OG, FIH, 0.956333 min): 51.8274
- substrate hydroxylation (% conversion) ([3]; Fig 2e, 20 μM 12 and 100 μM 2OG, FIH, 1.43767 min): 63.7405 and 62.295 and 59.0531
- substrate hydroxylation (% conversion) ([3]; Fig 2e, 20 μM 12 and 100 μM 2OG, FIH, 1.67667 min): 68.2711 and 66.7748 and 63.7338
- substrate hydroxylation (% conversion) ([3]; Fig 2e, 20 μM 12 and 100 μM 2OG, FIH, 1.918 min): 71.9325 and 70.2648 and 67.9993
- substrate hydroxylation (% conversion) ([3]; Fig 2e, 20 μM 12 and 100 μM 2OG, FIH, 2.15883 min): 75.384 and 73.508 and 70.5367
- substrate hydroxylation (% conversion) ([3]; Fig 2e, 20 μM 12 and 100 μM 2OG, FIH, 2.6405 min): 81.0929 and 78.2797 and 76.6153
- substrate hydroxylation (% conversion) ([3]; Fig 2e, 20 μM 12 and 100 μM 2OG, FIH, 2.88117 min): 82.6978 and 80.7392 and 78.6776
- substrate hydroxylation (% conversion) ([3]; Fig 2e, 20 μM 12 and 100 μM 2OG, FIH, 3.12267 min): 85.0838 and 82.5241 and 80.8532
- substrate hydroxylation (% conversion) ([3]; Fig 2e, 20 μM 12 and 100 μM 2OG, FIH, 3.36583 min): 85.9652 and 84.4207 and 82.727
- substrate hydroxylation (% conversion) ([3]; Fig 2e, 20 μM 12 and 100 μM 2OG, FIH, 3.60733 min): 87.7923 and 85.7936 and 83.2563
- substrate hydroxylation (% conversion) ([3]; Fig 2e, 20 μM 12 and 100 μM 2OG, FIH, 3.849 min): 88.932 and 84.1653 and 80.7905
- substrate hydroxylation (% conversion) ([3]; Fig 2d, 20 μM 12, FIH, 0 min): 8.164 and 7.161 and 7.808
- substrate hydroxylation (% conversion) ([3]; Fig 2d, 20 μM 12, FIH, 0.707167 min): 31.5759 and 26.6674 and 29.4313
- substrate hydroxylation (% conversion) ([3]; Fig 2d, 20 μM 12, FIH, 1.41317 min): 48.4989 and 42.8597 and 46.6007
- substrate hydroxylation (% conversion) ([3]; Fig 2d, 20 μM 12, FIH, 2.12133 min): 61.9239 and 55.8625 and 59.591
- substrate hydroxylation (% conversion) ([3]; Fig 2d, 20 μM 12, FIH, 2.822 min): 71.1548 and 65.8729 and 69.0603
- substrate hydroxylation (% conversion) ([3]; Fig 2d, 20 μM 12, FIH, 3.52117 min): 77.6139 and 72.8151 and 76.4316
- substrate hydroxylation (% conversion) ([3]; Fig 2d, 20 μM 12, FIH, 4.22083 min): 82.6095 and 78.8355 and 81.4405
- substrate hydroxylation (% conversion) ([3]; Fig 2d, 20 μM 12, FIH, 4.9205 min): 86.3253 and 83.0223 and 85.6621
- substrate hydroxylation (% conversion) ([3]; Fig 2d, 20 μM 12, FIH, 5.62167 min): 89.1149 and 86.1539 and 88.6579
- substrate hydroxylation (% conversion) ([3]; Fig 2d, 20 μM 12, FIH, 6.3215 min): 91.4092 and 88.7795 and 90.8352
- substrate hydroxylation (% conversion) ([3]; Fig 2d, 20 μM 12, FIH, 7.02117 min): 93.1171 and 89.921 and 92.1057
- substrate hydroxylation (% conversion) ([3]; Fig 2d, 20 μM 12, FIH, 7.724 min): 94.3469 and 91.6232 and 93.2231
- substrate hydroxylation (% conversion) ([3]; Fig 2d, 20 μM 12, FIH, 8.42383 min): 95.3806 and 92.9188 and 94.5877
- substrate hydroxylation (% conversion) ([3]; Fig 2d, 20 μM 12, FIH, 9.1255 min): 96.194 and 94.1363 and 95.5545
- substrate hydroxylation (% conversion) ([3]; Fig 2d, 20 μM 12, FIH, 9.83 min): 97.3851 and 94.9972 and 96.1755
- substrate hydroxylation (% conversion) ([3]; Fig 2d, 20 μM 12, FIH, 10.5315 min): 98.7917 and 94.9441 and 95.9828
- FIH-catalyzed CA1–20 hydroxylation ([3]; Fig 2d, 20 μM 12, after ~5 min): ~ 90%
Structure (SMILES): CC(CC(=O)C(=O)O)C(=O)O (stereo not drawn) [compound 12, 4-methyl-2OG]
- IC50 AspH [2]: inactive; also recorded: neither inhibits AspH nor FIH
